Here are results for 6 substances from patent publication US5876715A, “Antibodies that bind novel carbohydrate ligands (myelorollins) that cause E-selectin dependent cell rolling, and uses thereof” (The Biomembrane Institute, priority 1996, dated 1999).

“Also recorded” adds a separate entry of the source.

In the assay the test system is E-selectin-expressing CHO cells. Put plainly: Static adhesion of E-selectin-expressing CHO cells to gangliosides coated on polystyrene beads affixed to glass slides. As to conditions: static conditions, ganglioside coated on polystyrene beads affixed on glass slides. The class given is cell-based, Chinese hamster. The method, then: Polystyrene beads (1 μm diameter) were spread and affixed to glass microscope slides as described in Materials & Methods, added with 100 ng of poly-LacNac ganglioside dissolved in isopropanol-hexane-water (50:45:10), allowed to dry for 1 hr, and immersed in PBS containing 2% BSA. The slides were placed in Petri dishes and overlaid with RPMI medium containing E-selectin-expressing CHO cells (1×10^5 /cells mL). After 10 min incubation, slides were washed with PBS and total numbers of cells adhered on beads were counted. Each point represents one experiment. Horizontal lines indicate arithmetic means.
Gangliosides coated on polystyrene beads affixed on glass slides as described above and placed in petri dishes were incubated with E-selectin-expressing CHO cells in 1% FCS-RPMI medium. After 30 min, slides were washed 3 times with PBS, and numbers of adherent cells were counted under a microscope.
Polystyrene latex beads were affixed on glass microscope slides, added with 1 nmol of ganglioside fraction dissolved in isopropanol-hexane-water (50:45:10), allowed to dry for 1 hr, and then immersed in PBS(+) containing 1% bovine serum albumin. The slides were placed in Petri dishes containing permanently E-selectin-expressing CHO cells (1×10^5) in RPMI medium. After 30 min. incubation, slides were washed with PBS and total numbers of cells adhered on the affixed beads were counted. Sdiy^2 is sialyl-Le^x -Le^x (VI^3 NeuAcV^3 FucIII^3 FucnLc6 Cer).
Static adhesion assay using polystyrene latex beads: In order to observe static adhesion with the same matrix used for dynamic adhesion assay, the following procedure was used. Polystyrene latex beads of 1 μm or 4 μm diameter (IDC Spheres™; IDC, Portland, Oreg.), affixed to objective microscope slides, were used as carriers of poly-LacNAc GSLs. 30 μL of the 4 μm diameter bead suspension (containing 2×10^9beads/mL) or 60 μL of 1 μm bead suspension (containing 1×10^11 beads/mL) were placed in Eppendorf tubes and washed with absolute ethanol 3×. Sedimented 4 μm beads were suspended in […] ethanol, and sedimented 1 μm beads were suspended in 2 mL ethanol. 1 μL aliquots of these suspensions were placed on freshly opened microscope slides (Labcraft Superfrost® Plus, Curtin Matheson Scientific, Houston, Tex.). Beads were distributed homogeneously on the glass surface within a circular spot with diameter ≈1 cm. Slides were heated at 150° C. for 50 sec, which caused the beads to adhere strongly to the surface such that they could not be washed off by water stream at various velocities. Gangliosides dissolved in isopropanol-hexane-water at the same molar concentration were applied to latex beads affixed to the slides; namely, 1 μL aliquots containing 50-100 ng ganglioside were placed on the center of the circular spot. The ganglioside thus became affixed to the bead surface. Plates were immersed in 3% BSA in PBS for 1 hr at room temp, and washed 3× with PBS containing Ca^2+ /Mg^2+.
Plates were overlaid with 5×10^5 CHO cells freshly harvested and suspended in RPMI culture medium for 15 min without moving. Washing with RPMI 3× was usually sufficient to eliminate non-adherent cells from beads. However, careful microscopic examination had to be repeated until the cells placed on control polystyrene beads were washed out. Plates were then fixed with 1% glutaraldehyde in PBS and number of cells adhered to the layer of poly-LacNAc ganglioside-coated beads were counted.

Regarding “X^3 NeuAcVII^3 FucV^3 FucnLc10 Cer [Fr. 13-1]”, the “adhesion of E-selectin-expressing CHO cells (number of cells adhered on beads)” value is recorded as “less than numbers binding to Str. 3”.
On to “VI^3 NeuAcV^3 FucIII^3 FucnLc6 Cer [SLe^x -Le^x, reference compound]”, for which the “adhesion of E-selectin-expressing CHO cells (number of cells adhered on beads)” value is given as “greatest cell adhesion; also recorded: highest adhesion; also recorded: slightly higher adhesion than Fr. 13-1; also recorded: highest binding; also recorded: higher number of E-selectin-expressing cells adhered”. Also, under “listed as Str. 3”, the “adhesion of E-selectin-expressing CHO cells (number of cells adhered on beads)” value was “much higher number of cells bound; also recorded: much higher adhesion than myelorollin”.
Take “VIII^3 NeuAcIII^3 FucnLc8 Cer [Fr. 10-2]”: the “adhesion of E-selectin-expressing CHO cells (number of cells adhered on beads)” value is listed as “much weaker adhesion than Fr. 13-1 or Fr. 14”.
As to VI^3 NeuAcnLc6 Cer [Fr. 7], the “adhesion of E-selectin-expressing CHO cells (number of cells adhered on beads)” value is listed as “no adhesion”. Further, for the setting “listed as Str. 1”, the “adhesion of E-selectin-expressing CHO cells (number of cells adhered on beads)” value was “did not bind”.
For the substance VIII^3 NeuAcV^3 FucnLc8 Cer [Fr. 10-1], the “adhesion of E-selectin-expressing CHO cells (number of cells adhered on beads)” value is given as “much weaker adhesion than Fr. 13-1 or Fr. 14”. Besides, the “adhesion of E-selectin-expressing CHO cells (number of cells adhered on beads)” value (listed as Str. 4) is reported as “do not show appreciable adhesion”.
For the substance X^3 NeuAcVII^3 FucnLc10 Cer [Fr. 12-2], the “adhesion of E-selectin-expressing CHO cells (number of cells adhered on beads)” value was “much weaker adhesion than Fr. 13-1 or Fr. 14”. Moreover, the “adhesion of E-selectin-expressing CHO cells (number of cells adhered on beads)” value (listed as Str. 6) is listed as “do not show appreciable adhesion”.
